Here are results for one molecule from US20220354911A1, “TREATMENT OF TUMORS BY A COMBINATION OF AN ONCOLYTIC ADENOVIRUS, A CDK4/6 INHIBITOR AND A FURTHER THERAPEUTICALLY ACTIVE AGENT” (KLINIKUM RECHTS DER ISAR DER TECHNISCHEN UNIVERSITÄT MÜNCHEN, priority 2019, published 2022).

In one test the test system is SK-N-MC cells. Description: Potency assay (SRB), XVir-N-31, Abemaciclib and JQ-1. The class given is cell-based. The settings on record: CDK 4/6 (Abemaciclib) resistant SK-N-MC cells, 200 nM Abemaciclib + 500 nM JQ-1, XVir-N-31, 5 days post infection. The procedure: 100,000 SK-N-MC cells/well were seeded in 12-well plates and grown in RPMI Medium containing 10% FCS at 5% CO2 at 37° C. Cells were treated with 200 nM Abemaciclib+500 nM JQ-1 24 hours before and again 1 hour post infection by adding appropriate amount to the medium. Infection of XVir-N-31 took place in 500 μl in RPMI Medium without serum. SRB-Staining took place 5 days post infection. Mock treated cells were set 100% cell survival.

For test [1], the system named is RB, phospho-RB, E2F-1, Hexim1. Description: Western blot of cellular target proteins after JQ-1 and Palbociclib. The class given is cell-based, human. How it is done:
(§1) 1-2×10^6 UMUC-3 or RT-112 cells were seeded in 10 cm plates in DMEM medium and 24 hours post seeding treated with respective small molecular inhibitors. 24 hours post treatment, lysates of total proteins were taken using an SDS-buffer. BCA Assay was applied to adjust equivalent protein concentrations. Then, protein samples were supplemented with Lämmli buffer and separated via SDS-PA gelelectrophoresis on 10% PA-Gels. Samples were blotted onto PVDF membranes using a BioRAD Wet Tank System. These membranes were blocked with TBS-Tween buffer containing 5% Skim milk powder for 1 hour at room temperature. Incubation with primary antibodies was conducted over night at 4° C. and with HRP-conjugated secondary antibodies for 1 hour at room temperature. Chemiluminescence was detected using ECL prime (Pierce) with the ChemiDoc Imaging System (BioRad). Figures were designed in Adobe® Illustrator and evaluation was performed with ImageLab.

For another test, the system named is XVir-N-31. Description: XVir-N-31 replication in UMUC-3 cells, JQ-1 priming or concurrent treatment (fiber qPCR). The class given is cell-based, Mastadenovirus, Type C, Serotype 5. The settings on record: UMUC-3, 10 MOI, 100 nM or 500 nM JQ-1, 24 hours post infection. The procedure: 2.5×10^4 UMUC-3 cells were seeded in 12 well plates in DMEM medium. The following day the cells were treated with JQ-1 (priming) or DMEM medium. At the next morning the cells were infected with 10 MOI XVir-N-31. One hour after infection DMEM Medium containing JQ-1 was added on the cells (concurrent treatment). After each 4 and 24 hours, the cells were washed once with PBS and 200 μl of SDS DNA Lysis Buffer was added. The cells were incubated with Proteinase K for at least 1 hour before undergoing a phenol-chloroform-isoamylalcohol purification. The DNA was diluted in 1×TE buffer and the concentration of the DNA was determined using a Nanodrop. For each sample a solution of 15 ng/μl was prepared and a RT-qPCR using 75 ng of DNA and a GoTaq Master mix. Specific fiber forward and reverse primers were used and for the calculation of the Δ ct value specific Actin primers were used as well. For each sample 3 Fiber and 3 Actin values were measured. The calculation was done in excel and each 24 hours value was calculated based on its 4 hours value (initial viral entry, before replication).

For test [2], the system named is E1A, E1B55k, DBP, E40rf6 and Hexon. Description: Western blot of viral protein expression kinetics in UMUC-3 cells with JQ-1. The class given is cell-based, Mastadenovirus, Type C, Serotype 5. The settings on record: UMUC-3, 10 MOI. The procedure: as §1, with “1×10^6” for “1-2×10^6”, “UMUC-3” for “UMUC-3 or RT-112”, “infected” for “treated”, “10 MOI XVir-N-31. 1 hour” for “respective small molecular inhibitors. 24 hours”, “infection, culturing media was either refilled by DMEM or DMEM spiked with 500 nM JQ-1. 12, 24, 36 and 48 h.p.i,” for “treatment,”

For the molecule `Cc1sc2c(c1C)C(c1ccc(Cl)cc1)=N[C@@H](CC(=O)OC(C)(C)C)c1nnc(C)n1-2` [JQ-1, thieno-triazolo-1-4-diazepine], the “cell killing on addition of JQ-1” value with SK-N-MC cells is reported as “did not increase cell killing”. The “RB, phospho-RB or E2F-1 protein level” value in test [1] (UMUC-3 and RT-112, 0.2 μM and 0.5 μM, 24 hours post treatment, monotherapy or with Palbociclib) was “did not show any effects”. For the same molecule, the Hexim1 entry in test [1] (UMUC-3 and RT-112, 24 hours post treatment) is “downregulated”. For the same molecule, in the test on XVir-N-31, the “XVir-N-31 replication, concurrent treatment with JQ-1” value is “crucial for dual therapy success” and the “XVir-N-31 replication, priming with JQ-1” value is on record as “no beneficial effect”. For the same molecule, the Hexon expression result in test [2] (500 nM JQ-1) is on record as “expressed in high levels in early time-points”. In addition, the “absolute viral protein expression and kinetic of XVir-N-31 viral proteins (E1A, E1B55k, DBP and E40rf6)” value in test [2] (500 nM JQ-1 concurrent, 12, 24, 36 and 48 h.p.i) is reported as “highly accelerated”.
